Assay [1] concerns parental, wt and mutant E-cadherin expressing MDA-MB-435S cells. The experiment in a line: Sensitivity profiling by XTT-cell proliferation and viability assay. The class given is cell-based, human. The following applies: 48 h treatment, increasing concentrations; parental vs wt vs mutant E-cadherin cells. Here is the method: Cells were seeded at a density of […] cells per well in 96-well microtiter plates (Nunc, Wiesbaden-Biebrich, Germany) in 100 μl DMEM with 10% FCS per-well, and cell proliferation was investigated by XTT-cell proliferation and viability assay (Roche Molecular Biochemicals, Mannheim, Germany). After 24, 48 and 72 h, 50 μl XTT labeling mixture was added. The cleavage of the tetrazolium salt XTT to form a formazan dye that occurs in metabolically active viable cells was quantified spectrophotometrically by measuring the absorbance of the formazan product at 450 nm by an ELISA plate reader. The absorbance values obtained when culture medium without cells was assayed was subtracted from the values obtained with cells. Quadruplicate determinations were performed for each time point. The sensitivity of parental, wt and mutant E-cadherin expressing MDA-MB-435S cells to the chemotherapeutic agents cisplatin, etoposide and 5-FU was investigated by XTT-cell proliferation and viability assay as described above. […] After 48 h, 50 μXTT labeling mixture was added and the absorbance values at 450 nm were measured spectrophotometrically by an ELISA plate reader. The absorbance values obtained when culture medium without cells was assayed, were subtracted from the values obtained with cells. […] The percentage of viable cells was determined corresponding to non-treated cells.
(Formazan colour is commonly taken as a measure of viable cells.)

For assay [2] the test system is unchanged. The experiment in a line: Colony formation assay. The class given is cell-based, human. As to conditions: 2 h treatment, colonies counted after 7 days; parental vs wt vs mutant E-cadherin cells. Here is the method:
Chemosensitivity to cisplatin, etoposide and 5-FU of parental, wt and mutant E-cadherin expressing MDA-MB-435S cells was investigated by colony formation assay. Cells were seeded at a density of 2×10^3 cells per 6-well and treated 3 h later for 2 h with cisplatin, etoposide or 5-FU. Colonies were fixed and stained after 7 days with Diff Quick Reagent (Dade Behring, Liederbach, Germany) and the colony number was determined with Scion Image Software from Scion Corporation (Frederick, USA). The percentage of colonies was determined corresponding to non-treated cells.

Take `N.N.[Cl][Pt][Cl]` [cisplatin]: the “sensitivity profile, cell survival by XTT assay” value in assay [1] is “reduced sensitivity of wt or mutant E-cadherin expressing MDA-MB-435S cells as compared to parental cells”. For the same compound, the “sensitivity profile, colony formation” value in assay [2] was “reduced sensitivity of wt or mutant E-cadherin expressing MDA-MB-435S cells as compared to parental cells”.

(Values after patent publication US20060002934A1 (priority 2002, published 2006).)
